Patent US20240174634A1, “Aldehyde Dehydrogenase Inhibitors and Their Therapeutic Use” (priority 2020, published 2024)

How the values were obtained:
ALDH1A2 = target: T1, ALDH1A2 (Homo sapiens, UniProt O94788); assay: Selectivity biochemical assay, NAD(P)H-Glo Detection System
T1 construct: His-tag; made in house; host or cells: E. coli Rosetta (DE3)
T1 sequence (O94788 1-518): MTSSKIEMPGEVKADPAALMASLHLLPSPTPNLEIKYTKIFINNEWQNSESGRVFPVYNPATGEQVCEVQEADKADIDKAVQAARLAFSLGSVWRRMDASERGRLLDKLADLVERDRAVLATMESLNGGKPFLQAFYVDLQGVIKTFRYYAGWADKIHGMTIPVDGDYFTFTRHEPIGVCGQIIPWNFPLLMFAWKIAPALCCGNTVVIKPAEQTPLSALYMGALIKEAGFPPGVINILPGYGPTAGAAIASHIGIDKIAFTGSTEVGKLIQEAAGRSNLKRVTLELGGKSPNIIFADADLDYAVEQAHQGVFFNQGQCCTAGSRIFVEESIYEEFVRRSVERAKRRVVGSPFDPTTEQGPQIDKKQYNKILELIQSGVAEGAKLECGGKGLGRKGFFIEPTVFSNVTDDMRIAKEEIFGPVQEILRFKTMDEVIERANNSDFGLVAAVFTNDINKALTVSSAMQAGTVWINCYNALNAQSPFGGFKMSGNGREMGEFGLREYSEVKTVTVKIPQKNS
Text: (§1) Cloning: Open reading frames corresponding to the protein coding sequences of full length human ALDH1A1 (Uniprot ID P00352), ALDH1A2 (094788) and ALDH1A3 (P47895) were polymerase chain reaction (PCR) amplified from human cDNA and inserted into the multi-cloning sites of the commercially available (Novagen) E. coli expression vectors pET47b (ALDH1A1, EcoRI restriction site; ALDH1A2, BamHI and EcoRI sites) or pET28a (ALDH1A3, NdeI and BamHI sites), using standard molecular genetic techniques. Recombinant DNA products were sequence verified prior to use in expression studies.
(§2) Expression: Expression constructs were transformed into the E. coli strain Rosetta (DE3) (Merck) and individual colonies used to inoculate 10 mL lysogen broth (LB) medium supplemented with kanamycin and chloramphenicol at 50 μg/mL and 34 μg/mL, respectively. Cultures were grown to saturation overnight at 37° C., prior to being used to sub-inoculate fresh 1 L LB medium cultures (plus antibiotics, as before). 1 L cultures were grown at 37° C., 200 rpm, throughout the day until the optical density at 600 nm (OD600) reached ˜0.8, at which point growth temperature was reduced to 18° C. and 1 mM isopropyl β-d-1-thiogalacto pyranoside (IPTG) added to induce protein expression.
(§3) Cultures were left overnight (at least 16 h) under these conditions and the following day harvested by centrifugation (4000 G, 10 minutes). Culture supernatant was discarded and cell pellets stored at −80° C. until further processing.
(§4) Purification: Cell pellets were thawed on ice, re-suspended in Ni Affinity Buffer A (20 mM HEPES pH 7.5, 300 mM NaCl, 20 mM imidazole, 1 mM tris(2-carboxyethyl)phosphine (TCEP)) with protease inhibitors (cOmplete Ultra protease inhibitor, Roche), and lysed by sonication. Lysates were clarified by centrifugation at 18,000 G, 4° C., for 40 minutes, and loaded directly onto a pre-equilibrated (Buffer A) 5 mL HisTrap Fast Flow column (GE Healthcare) by way of an AKTA Fast Protein Liquid Chromatography (FPLC) system. The column was sequentially treated with 6 column volumes (CV) 100% Buffer A, 8 CV of 90% Buffer A:10% Buffer B (20 mM 4-(2-hydroxyethyl)-1-piperazineethanesulfonic acid (HEPES) pH 7.5, 300 mM NaCl, 500 mM imidazole, 1 mM TCEP) and finally a linear gradient from 10-70% Buffer B over 8 CV to elute recombinant His-tagged protein. Relevant fractions (as measured by 280 nm absorbance) collected during elution were pooled and subjected to further purification by size exclusion chromatography (Superdex 200 26/600, GE Healthcare, running buffer 20 mM 2-(carbamoylmethylamino)ethanesulfonic acid (ACES) pH 7.5, 1 mM TCEP). Relevant fractions from this step were pooled, aliquoted, and stored at −80° C. until required for compound profiling assays.
(§5) Materials: ALDH2 was purchased from Abnova. Tris(hydroxymethyl)aminomethane (Tris) was purchased from MP Biomedicals. TCEP, ethylenediaminetetraacetic acid (EDTA), propionaldehyde, DMSO and Tween-20 were purchased from Sigma. Nicotinamide adenine dinucleotide (NAD) was obtained from Abcam. The NAD(P)H-Glo™ Detection System was purchased from Promega. White, non-binding surface, 384 well plates were supplied by Corning (#3574).
(§6) Method: Inhibition of ALDH1A3 was assessed using the NAD(P)H-Glo™ Detection System (Cat. No. G9062) from Promega. This assay detects the production of NADH from NAD by ALDH1A3 via the coupled enzymatic conversion of a proluciferin reductase substrate to generate a luminescent signal. Inhibition of ALDH1A3 by small molecule inhibitors will result in reduction or abrogation of luminescence signal increase above background. Inhibition of ALDH1A1, ALDH1A2 and ALDH2 (selectivity assays) were assessed using the same assay.
(§7) Compounds were dosed into Corning 384 well assay plates using an Echo acoustic dispenser to give 10 point curves in a 3-fold dilution series. Compounds were dispensed from a 20 mM DMSO stock and initially screened at a top concentration of 20 μM (ALDH1A3) or 250 μM (ALDH1A1, ALDH1A2 & ALDH2). […]

ALDH1A1 = target: T2, ALDH1A1 (Homo sapiens, UniProt P00352); assay: as above
T2 construct: His-tag; made in house; host or cells: E. coli Rosetta (DE3)
T2 sequence (P00352 1-501): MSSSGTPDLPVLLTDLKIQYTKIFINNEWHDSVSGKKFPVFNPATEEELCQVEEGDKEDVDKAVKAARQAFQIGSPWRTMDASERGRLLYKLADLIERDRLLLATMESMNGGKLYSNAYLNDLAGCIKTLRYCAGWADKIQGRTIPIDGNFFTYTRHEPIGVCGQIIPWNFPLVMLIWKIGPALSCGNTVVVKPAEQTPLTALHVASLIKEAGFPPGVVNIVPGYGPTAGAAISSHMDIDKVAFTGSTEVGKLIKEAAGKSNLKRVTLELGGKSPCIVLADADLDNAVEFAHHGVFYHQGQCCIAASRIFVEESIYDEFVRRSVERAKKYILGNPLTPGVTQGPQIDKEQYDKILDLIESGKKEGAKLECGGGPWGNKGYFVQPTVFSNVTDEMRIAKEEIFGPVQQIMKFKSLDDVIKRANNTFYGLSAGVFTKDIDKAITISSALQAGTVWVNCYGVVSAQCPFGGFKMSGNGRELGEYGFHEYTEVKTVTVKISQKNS
Text: as §1, §2, §3, §4, §5, §6, §7

Row | Structure (SMILES) | IC50 (ALDH1A2) [µM] | IC50 (ALDH1A1) [µM]
1 | O=C1CCc2cc(OCCN3CCCC3c3ccsc3)ccc2N1 (stereo not shown) [ALDHI-2014, 6-[2-[2-(3-thienyl)pyrrolidin-1-yl]ethoxy]-3,4-dihydro-1H-quinolin-2-one] | ≥ 100 | ≥ 100
2 | CC1Cc2cc(OCCN3CCCC3c3cccc(F)c3)ccc2NC1=O (stereo not shown) [ALDHI-2048, 6-[2-[2-(3-fluorophenyl)pyrrolidin-1-yl]ethoxy]-3-methyl-3,4-dihydro-1H-quinolin-2-one] | 0.1 to 1 | 10 to 100
3 | O=C1CCc2cc(NC(=O)c3scnc3-c3ccccc3Cl)ccc2N1 [ALDHI-1012, 4-(2-chlorophenyl)-N-(2-oxo-3,4-dihydro-1H-quinolin-6-yl)thiazole-5-carboxamide] | – | 10 to 100
4 | O=C1CCc2cc(OCCN3CCCC3c3cccs3)ccc2N1 (stereo not shown) [ALDHI-2013, 6-[2-[2-(2-thienyl)pyrrolidin-1-yl]ethoxy]-3,4-dihydro-1H-quinolin-2-one] | 1 to 10 | ≥ 100
5 | CC1CN(CCOc2ccc3c(c2)CCC(=O)N3)C(c2ccccc2)CO1 (mixture of isomers) [ALDHI-2042, 6-[2-(2-methyl-5-phenyl-morpholin-4-yl)ethoxy]-3,4-dihydro-1H-quinolin-2-one] | 0.1 to 1 | 10 to 100
6 | O=C1CCc2cc(OCCN3CC(O)CC3c3cccc(F)c3)ccc2N1 (mixture of isomers) [ALDHI-2035, 6-[2-[2-(3-fluorophenyl)-4-hydroxy-pyrrolidin-1-yl]ethoxy]-3,4-dihydro-1H-quinolin-2-one] | 0.1 to 1 | 10 to 100
7 | Cn1cc(C2CCCN2CCOc2ccc3c(c2)SCC(=O)N3)cn1 (stereo not shown) [ALDHI-2026, 7-[2-[2-(1-methylpyrazol-4-yl)pyrrolidin-1-yl]ethoxy]-4H-1,4-benzothiazin-3-one] | ≥ 100 | ≥ 100
8 | O=C1CCc2cc(OCCN3CCC3c3cccc(F)c3)ccc2N1 (stereo not shown) [ALDHI-2021, 6-[2-[2-(3-fluorophenyl)azetidin-1-yl]ethoxy]-3,4-dihydro-1H-quinolin-2-one] | 1 to 10 | ≥ 100
9 | O=C1CCc2cc(OCCN3CCCC3c3cccnc3)ccc2N1 (stereo not shown) [ALDHI-2005, 6-[2-[2-(3-pyridyl)pyrrolidin-1-yl]ethoxy]-3,4-dihydro-1H-quinolin-2-one] | 10 to 100 | ≥ 100
10 | O=C1CCc2cc(OCCN3CCC[C@H]3c3cccc(F)c3)ccc2N1 [ALDHI-2018, 6-[2-[(2S)-2-(3-fluorophenyl)pyrrolidin-1-yl]ethoxy]-3,4-dihydro-1H-quinolin-2-one] | 0.1 to 1 | ≥ 100
11 | C[C@@H](c1ccccc1)N(CCO)CCOc1ccc2c(c1)CCC(=O)N2 [ALDHI-3007, 6-[2-[2-hydroxyethyl-[(1S)-1-phenylethyl]amino]ethoxy]-3,4-dihydro-1H-quinolin-2-one] | 1 to 10 | 10 to 100
12 | O=C1COc2cc(OCCN3CCCC3c3cccc(F)c3)ccc2N1 (stereo not shown) [ALDHI-2009, 7-[2-[2-(3-fluorophenyl)pyrrolidin-1-yl]ethoxy]-4H-1,4-benzoxazin-3-one] | 1 to 10 | ≥ 100
13 | CC1(c2cccc(F)c2)CCCN1CCOc1ccc2c(c1)CCC(=O)N2 (stereo not shown) [ALDHI-2037, 6-[2-[2-(3-fluorophenyl)-2-methyl-pyrrolidin-1-yl]ethoxy]-3,4-dihydro-1H-quinolin-2-one] | 0.1 to 1 | ≥ 100
14 | O=C1CSc2cc(OCCN3CCCC3c3cccc(F)c3)ccc2N1 (stereo not shown) [ALDHI-2008, 7-[2-[2-(3-fluorophenyl)pyrrolidin-1-yl]ethoxy]-4H-1,4-benzothiazin-3-one] | 10 to 100 | ≥ 100
15 | O=C1CCc2cc(OCCN3CCCC3c3ccc(F)cc3)ccc2N1 (stereo not shown) [ALDHI-2003, 6-[2-[2-(4-fluorophenyl)pyrrolidin-1-yl]ethoxy]-3,4-dihydro-1H-quinolin-2-one] | 1 to 10 | ≥ 100
16 | O=C1CCc2cc(OCCN3CCCC3c3cccc(F)c3)ccc2N1 (stereo not shown) [ALDHI-2001, 6-[2-[2-(3-fluorophenyl)pyrrolidin-1-yl]ethoxy]-3,4-dihydro-1H-quinolin-2-one] | 0.1 to 1 | ≥ 100
17 | O=C1CCc2cc(NC(=O)c3ccccc3-c3cccc(F)c3)ccc2N1 [ALDHI-1007, 3′-fluoro-N-(2-oxo-1,2,3,4-tetrahydroquinolin-6-yl)-[1,1′-biphenyl]-2-carboxamide] | 1 to 10 | ≥ 100
18 | O=C1CCCc2cc(OCCN3CCCC3c3cccc(F)c3)ccc2N1 (stereo not shown) [ALDHI-2020, 7-[2-[2-(3-fluorophenyl)pyrrolidin-1-yl]ethoxy]-1,3,4,5-tetrahydro-1-benzazepin-2-one] | 1 to 10 | ≥ 100
19 | Cc1ccc(C2CCCN2CCOc2ccc3c(c2)CCC(=O)N3)cn1 (stereo not shown) [ALDHI-2030, 6-[2-[2-(6-methyl-3-pyridyl)pyrrolidin-1-yl]ethoxy]-3,4-dihydro-1H-quinolin-2-one] | 10 to 100 | ≥ 100
20 | O=C1CCc2cc(NC(=O)c3scnc3-c3ccccc3F)ccc2N1 [ALDHI-1021, 4-(2-fluorophenyl)-N-(2-oxo-3,4-dihydro-1H-quinolin-6-yl)thiazole-5-carboxamide] | 1 to 10 | ≥ 100
21 | CC1(c2ccccc2)COCCN1CCOc1ccc2c(c1)CCC(=O)N2 (stereo not shown) [ALDHI-2040, 6-[2-(3-methyl-3-phenyl-morpholin-4-yl)ethoxy]-3,4-dihydro-1H-quinolin-2-one] | 0.1 to 1 | ≥ 100
22 | O=C1CCc2cc(NC(=O)c3cncnc3-c3cccc(F)c3)ccc2N1 [ALDHI-1018, 4-(3-fluorophenyl)-N-(2-oxo-3,4-dihydro-1H-quinolin-6-yl)pyrimidine-5-carboxamide] | – | ≥ 100
23 | O=C1CCc2cc(NC(=O)c3c[nH]nc3-c3cccc(F)c3)ccc2N1 [ALDHI-1006, 3-(3-fluorophenyl)-N-(2-oxo-1,2,3,4-tetrahydroquinolin-6-yl)-1H-pyrazole-4-carboxamide] | – | ≥ 100
